Details: Liquid, Vibrating tube method

CCCCCCO [hexan-1-ol]
Details | mass density [kg/m3]
293.15 K, 100 kPa | 818.6
293.15 K, 10000 kPa | 824.8
293.15 K, 20000 kPa | 830.9
293.15 K, 30000 kPa | 836.4
293.15 K, 40000 kPa | 841.6
293.15 K, 50000 kPa | 846.5
293.15 K, 60000 kPa | 851.1
293.15 K, 70000 kPa | 855.5
293.15 K, 80000 kPa | 859.8
293.15 K, 90000 kPa | 863.7
293.15 K, 100000 kPa | 867.9
293.15 K, 110000 kPa | 871.5
293.15 K, 120000 kPa | 875.2
293.15 K, 130000 kPa | 878.7
293.15 K, 140000 kPa | 882.2
303.15 K, 100 kPa | 811.5
303.15 K, 10000 kPa | 818.2
303.15 K, 20000 kPa | 824.1
303.15 K, 30000 kPa | 830
303.15 K, 40000 kPa | 835.1
303.15 K, 50000 kPa | 840.5
303.15 K, 60000 kPa | 845.3
303.15 K, 70000 kPa | 849.8
303.15 K, 80000 kPa | 854.2
303.15 K, 90000 kPa | 858.4
303.15 K, 100000 kPa | 862.4
303.15 K, 110000 kPa | 866.3
303.15 K, 120000 kPa | 870
303.15 K, 130000 kPa | 873.6
303.15 K, 140000 kPa | 877.1
313.15 K, 100 kPa | 804.2
313.15 K, 10000 kPa | 811.1
313.15 K, 20000 kPa | 817.4
313.15 K, 30000 kPa | 823.5
313.15 K, 40000 kPa | 829
313.15 K, 50000 kPa | 834.4
313.15 K, 60000 kPa | 839.4
313.15 K, 70000 kPa | 844.3
313.15 K, 80000 kPa | 848.7
313.15 K, 90000 kPa | 853.1
313.15 K, 100000 kPa | 857.1
313.15 K, 110000 kPa | 861.2
313.15 K, 120000 kPa | 865.1
313.15 K, 130000 kPa | 868.7
313.15 K, 140000 kPa | 872.5
323.15 K, 100 kPa | 797.3
323.15 K, 10000 kPa | 804.5
323.15 K, 20000 kPa | 811.2
323.15 K, 30000 kPa | 817.4
323.15 K, 40000 kPa | 823.3
323.15 K, 50000 kPa | 828.7
323.15 K, 60000 kPa | 833.8
323.15 K, 70000 kPa | 838.5
323.15 K, 80000 kPa | 843.1
323.15 K, 90000 kPa | 847.6
323.15 K, 100000 kPa | 851.8
323.15 K, 110000 kPa | 856
323.15 K, 120000 kPa | 860
323.15 K, 130000 kPa | 863.7
323.15 K, 140000 kPa | 867.3
333.15 K, 100 kPa | 789.7
333.15 K, 10000 kPa | 797.2
333.15 K, 20000 kPa | 804.3
333.15 K, 30000 kPa | 810.8
333.15 K, 40000 kPa | 817
333.15 K, 50000 kPa | 822.7
333.15 K, 60000 kPa | 828
333.15 K, 70000 kPa | 832.8
333.15 K, 80000 kPa | 837.6
333.15 K, 90000 kPa | 842.5
333.15 K, 100000 kPa | 846.8
333.15 K, 110000 kPa | 850.8
333.15 K, 120000 kPa | 854.4
333.15 K, 130000 kPa | 858.5
333.15 K, 140000 kPa | 862.2
343.15 K, 100 kPa | 781.9
343.15 K, 10000 kPa | 790.2
343.15 K, 20000 kPa | 797.6
343.15 K, 30000 kPa | 804.4
343.15 K, 40000 kPa | 810.6
343.15 K, 50000 kPa | 816.4
343.15 K, 60000 kPa | 822.1
343.15 K, 70000 kPa | 827.3
343.15 K, 80000 kPa | 832.1
343.15 K, 90000 kPa | 836.9
343.15 K, 100000 kPa | 841.4
343.15 K, 110000 kPa | 845.7
343.15 K, 120000 kPa | 849.7
343.15 K, 130000 kPa | 853.6
343.15 K, 140000 kPa | 857.5
353.15 K, 100 kPa | 773.8
353.15 K, 10000 kPa | 782.3
353.15 K, 20000 kPa | 790.1
353.15 K, 30000 kPa | 797.3
353.15 K, 40000 kPa | 803.8
353.15 K, 50000 kPa | 810
353.15 K, 60000 kPa | 815.6
353.15 K, 70000 kPa | 821
353.15 K, 80000 kPa | 826.2
353.15 K, 90000 kPa | 831.1
353.15 K, 100000 kPa | 835.6
353.15 K, 110000 kPa | 840
353.15 K, 120000 kPa | 844.3
353.15 K, 130000 kPa | 848.4
353.15 K, 140000 kPa | 852.3
363.15 K, 100 kPa | 765.5
363.15 K, 10000 kPa | 774.9
363.15 K, 20000 kPa | 783.1
363.15 K, 30000 kPa | 790.6
363.15 K, 40000 kPa | 797.5
363.15 K, 50000 kPa | 803.8
363.15 K, 60000 kPa | 809.7
363.15 K, 70000 kPa | 815.4
363.15 K, 80000 kPa | 820.6
363.15 K, 90000 kPa | 825.6
363.15 K, 100000 kPa | 830.3
363.15 K, 110000 kPa | 834.8
363.15 K, 120000 kPa | 839.2
363.15 K, 130000 kPa | 843.3
363.15 K, 140000 kPa | 847.2
373.15 K, 100 kPa | 756.9
373.15 K, 10000 kPa | 766.6
373.15 K, 20000 kPa | 775.4
373.15 K, 30000 kPa | 783.4
373.15 K, 40000 kPa | 790.4
373.15 K, 50000 kPa | 796.9
373.15 K, 60000 kPa | 803.1
373.15 K, 70000 kPa | 808.9
373.15 K, 80000 kPa | 814.2
373.15 K, 90000 kPa | 819.5
373.15 K, 100000 kPa | 824.4
373.15 K, 110000 kPa | 829.2
373.15 K, 120000 kPa | 833.3
373.15 K, 130000 kPa | 837.7
373.15 K, 140000 kPa | 841.7
383.15 K, 100 kPa | 748.2
383.15 K, 10000 kPa | 759.1
383.15 K, 20000 kPa | 767.8
383.15 K, 30000 kPa | 776.5
383.15 K, 40000 kPa | 783.5
383.15 K, 50000 kPa | 790.4
383.15 K, 60000 kPa | 796.8
383.15 K, 70000 kPa | 802.6
383.15 K, 80000 kPa | 808.3
383.15 K, 90000 kPa | 813.7
383.15 K, 100000 kPa | 818.7
383.15 K, 110000 kPa | 823.4
383.15 K, 120000 kPa | 828
383.15 K, 130000 kPa | 832.3
383.15 K, 140000 kPa | 836.5
393.15 K, 100 kPa | 739.4
393.15 K, 10000 kPa | 750.8
393.15 K, 20000 kPa | 760.5
393.15 K, 30000 kPa | 768.8
393.15 K, 40000 kPa | 777
393.15 K, 50000 kPa | 783.7
393.15 K, 60000 kPa | 790.3
393.15 K, 70000 kPa | 796.5
393.15 K, 80000 kPa | 802.5
393.15 K, 90000 kPa | 807.8
393.15 K, 100000 kPa | 813
393.15 K, 110000 kPa | 818.1
393.15 K, 120000 kPa | 822.6
393.15 K, 130000 kPa | 827.2
393.15 K, 140000 kPa | 831.5
403.15 K, 100 kPa | 730.2
403.15 K, 10000 kPa | 741.8
403.15 K, 20000 kPa | 751.9
403.15 K, 30000 kPa | 761.1
403.15 K, 40000 kPa | 769.3
403.15 K, 50000 kPa | 776.9
403.15 K, 60000 kPa | 783.7
403.15 K, 70000 kPa | 790.1
403.15 K, 80000 kPa | 796.2
403.15 K, 90000 kPa | 801.8
403.15 K, 100000 kPa | 807.2
403.15 K, 110000 kPa | 812.3
403.15 K, 120000 kPa | 817.1
403.15 K, 130000 kPa | 821.8
403.15 K, 140000 kPa | 826.5

— the NIST ThermoML archive (doi:10.1016/j.fluid.2012.02.007)
